Results taken from US20160120881A1, “USE OF BUFODIENOLIDES IN DIAGNOSING AND TREATING ESSENTIAL HYPERTENSION” (priority 2014, published 2016).

Assays:
[1] = system: severe PPH in rats; conditions: cited from earlier work
[2] = two phase I human studies, dosages calculated to have beneficial effects on human PPH (Sidharta et al.); cited from earlier work
[3] = in vitro (Fedorova et al. 1997; Lopatin et al. 1999); cited from earlier work
[4] = system: preeclampsia in animal models; experiment: Preeclampsia animal models; type: in vivo
Description: (§1) MBG is elevated in other syndromes such as preeclampsia and traumatic brain injury. It has been shown that the administration of the antagonist of MBG, resibufagenin (RBG) is therapeutically effective. […] RBG antagonizes MBG activity and may be an effective treatment for hypertension, ARDS, traumatic brain injury, and preeclampsia. Certain embodiments are directed to treating a hypertensive patient having elevated levels of MBG by administering an MBG antagonist or anti-MBG agent. In certain aspects the anti-MBG agent is resibufagenin (RBG).

[5] = system: rodent brain contusion model; experiment: Rodent brain contusion model; type: in vivo; conditions: given 1 hour after the insult
Description: as §1

[6] = system: volume expansion induced hypertensive rats; experiment: Systolic blood pressure in volume expansion induced hypertensive rats (saline infusion, NDS); type: in vivo, rat; conditions: NDS rats given resibufogenin (NDSR) vs NDS; FIG. 1
Description: (§2) FIG. 1. Mean systolic blood pressure (BP) values in sham (SHM) animals, angiotensin-infused rats (ANG), angiotensin infused animals given resibufogenin (ANGR), normal rats rendered hypertensive by the infusion of saline (volume expansion induced hypertensive rats)(NDS), NDS rats given resibufogenin (NDSR).
(§3) This compound differs from MBG only in the absence of a hydroxyl group in the beta-5 position of the molecule. […] Current therapy of volume expansion hypertension involves the administration of a diuretic. RBG can be considered in place of the diuretic as the therapy of choice of volume expansion-mediated hypertension or can be utilized in combination with the diuretic so that smaller dosages of each agent could be utilized. The latter strategy can result in fewer side effects from either drug.

[7] = system: angiotensin-infused rats; conditions: animals subjected to angiotensin excess (Danchuk et al. 2008); cited from earlier work
[8] = system: angiotensin-infused rats; experiment: Systolic blood pressure in angiotensin-infused rats (ANG); type: in vivo, rat; conditions: angiotensin infused animals given resibufogenin (ANGR) vs ANG; FIG. 1
Description: as §2, §3

[9] = system: volume expansion induced hypertensive rats; conditions: experimental animals, volume expansion-mediated hypertension (Danchuk et al. 2008); cited from earlier work

CCCNS(=O)(=O)Nc1ncnc(OCCOc2ncc(Br)cn2)c1-c1ccc(Br)cc1 [macitentan]
Pulmonary arterial hypertension ([1]; severe PPH (Kunita-Takanezawa et al. 2014)): reversed severe pulmonary arterial hypertension | Adverse effects ([1]; severe PPH): no adverse effects | Cardiac output ([1]; severe PPH): preserved cardiac output | RV systolic pressure ([1]; severe PPH): lowered RV systolic pressure | Right ventricular hypertrophy ([1]; severe PPH): reversed right ventricular hypertrophy | Adverse effects [2]: no adverse effects of the drug were noted

C[C@]12CC[C@H](O)C[C@@]1(O)CC[C@@H]1[C@@H]2CC[C@]2(C)[C@@H](c3ccc(=O)oc3)C[C@H]3O[C@]132 [marinobufagenin (MBG), marinobufagenin]
Vasoconstrictor action [3]: acts in vitro as a vasoconstrictor

C[C@]12CC[C@H](O)C[C@H]1CC[C@@H]1[C@@H]2CC[C@]2(C)[C@@H](c3ccc(=O)oc3)C[C@H]3O[C@]132 [resibufogenin, epoxy-3β-hydroxy-5β-bufa-20,22-dienolide]
Preeclampsia [4]: prevents preeclampsia | Tissue injury [5]: amelioration of tissue injury | Mean systolic blood pressure (BP) [6]: reduced blood pressure only in the volume expanded animals | Elevated blood pressure [7]: does not lower elevated blood pressure | Mean systolic blood pressure (BP) [8]: only in the volume expanded animals | Blood pressure elevation [9]: resolves blood pressure elevations
